The values below come from patent publication US7655801B2, “Substituted carbamic acid quinolin-6-yl esters useful as acetylcholinesterase inhibitors” (priority 2004, dated 2010).

For assay [1], the system named is scopolamine induced deficit (dementia/amnesia) in mice. Nature of the assay: Scopolamine induced amnesia, single trial passive avoidance test. In kind it is in vivo. The settings on record: test compounds 20 μmol/kg orally, donepezil 10 mg/kg po; for % Learning ([2nd Trial − 1st trial/1st trial] × 100): scopolamine group 33.6, trained control 274.9; for change in vivo at 20 µmol/kg: Mus musculus, read-out: % Improvement in Learning (% Learning in treated gp − % Learning in Scopolamine gp). The procedure:
Single trial passive avoidance is widely used as experimental test to assess learning memory functions in rodents.
Passive Avoidance Test (in vivo): Study was conducted in adult Swiss male mice of 3-4 months (wt. 20-25 g) which were kept in standard housing condition with 12 h light and dark cycle. Food and water were available ad libitum. […] Passive avoidance test was studied by a computerized shuttle box (Columbus Instruments, Ohio, USA) provided with a software program PACS 30. The shuttle box comprises of two compartments, isolated by an automated door. […] Each mouse was placed in the bright compartment and on transfer into the dark compartment it was given an electric shock (0.5 mA for 5 s) through floor grid. Transfer of mice from bright to dark compartment was recorded as transfer latency time (TLT) in seconds. TLT was recorded in control and treated groups (1st Trial, acquisition) and then after 24 hours (2nd Trial, retention). An increase in the TLT on 2nd Trial (retention) as compared to 1st Trial (acquisition) was taken as the criterion for successful learning and memory (cognitive activity).
Scopolamine induced deficit (Dementia): Scopolamine a muscarinic antagonist, known to produce impairment in cognitive functions (dementia) in human as well as in experimental animals, was used to produce deficit (no significant increase on 2nd trial) in passive avoidance learning. Scopolamine was administered 5 min prior to 1st trial. Reversal of scopolamine induced deficit i.e. significant increase in 2nd trial by test substance indicates potential anti-dementia activity. […].
Drug administration: Scopolamine was administered 5 min prior to 1st trial in test group. Each test compound was administered orally in dose of 20 μmol/kg (1% aq. suspension in gum acacia) 1 hour prior to 2nd trial in scopolamine treated mice (n=5). Scopolamine control group received 1 ml/kg of vehicle (1% aq. suspension in gum acacia) orally. […] Donepezil (10 mg/kg, po, as 1% aqueous suspension in gum acacia) was used as standard drug and given 1 hour prior to 2nd trial in scopolamine treated mice.
Statistical analysis: Mean values and standard error (S.E.) of mean were calculated for TLT and specific activity of AChE in the different regions of brain samples of each group. The significance of difference between the values of AChe activity and TLT between the groups was determined by one-way ANOVA test that followed by Dunnett's test.

The next assay deals with T1, AChE (Rattus norvegicus, UniProt P37136).
T1 construct: Aliquots of this supernatant was diluted in the ratio of 1:10 and used as a source of enzyme for the assay; from tissue; host or cells: whole brain of adult male SD rats; 10% homogenate with Triton X-100, 100,000 x g supernatant
T1 sequence (P37136 32-614): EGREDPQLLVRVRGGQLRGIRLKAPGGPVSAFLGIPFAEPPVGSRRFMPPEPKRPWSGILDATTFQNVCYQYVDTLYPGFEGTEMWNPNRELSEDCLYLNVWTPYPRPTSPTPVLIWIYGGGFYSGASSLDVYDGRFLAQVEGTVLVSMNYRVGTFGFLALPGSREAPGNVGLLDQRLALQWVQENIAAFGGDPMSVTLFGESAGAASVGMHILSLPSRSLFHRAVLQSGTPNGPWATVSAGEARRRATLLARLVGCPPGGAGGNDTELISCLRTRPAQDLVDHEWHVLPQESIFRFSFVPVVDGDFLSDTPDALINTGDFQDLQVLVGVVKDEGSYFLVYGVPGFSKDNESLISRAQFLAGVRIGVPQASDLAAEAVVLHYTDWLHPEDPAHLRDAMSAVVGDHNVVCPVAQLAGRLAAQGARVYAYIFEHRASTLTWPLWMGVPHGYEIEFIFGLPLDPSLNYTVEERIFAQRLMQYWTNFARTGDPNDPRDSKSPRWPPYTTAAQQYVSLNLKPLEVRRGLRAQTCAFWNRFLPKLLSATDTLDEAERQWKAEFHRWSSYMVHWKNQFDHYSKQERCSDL
Nature of the assay: Inhibitive effect on acetylcholinesterase activity (Ellman method, rat brain homogenate supernatant). In kind it is biochemical. The conditions noted are these: for Cholinesterase Enzyme Activity in presence of active drug: control AChE activity 0.014446; for % Cholinesterase Enzyme Activity in presence of active drug: relative to control AChE activity. The method, then:
The study was conducted in adult SD male rats (200-250 g) Rats were perfused under mild ether anesthesia through heart with ice cooled normal saline (0.9% NaCl) to reduce blood-borne cholinesterase from brain. After perfusion whole brain was taken out. 10% (w/v) homogenate of brain was prepared first by homogenizing in Ultra-Turrax T25 homogenizer at a speed of 9500 rpm thrice giving intervals for few seconds in between the runs, with sodium phosphate buffer (30 mmol/lit, pH 7.0). Sodium phosphate buffer was taken in a volume half to the final volume required for 10% homogenate. 1% Triton X-100 (1% w/v in 30 mmol/lit. sodium phosphate buffer, pH 7.0) is then added in a volume to make the final volume for 10% homogenate, slowly while stirring the homogenate on ice.
Kinetic profile of the enzyme activity was studied spectrophotometrically at 412 nm at an interval of 15 s. Assay for each sample was run in duplicate and each experiment was performed thrice.
[…] Tacrine (1 μmol) was used as standard AChe inhibitor (standard control). The AChe inhibitory activity was calculated on the basis of % decrease change from control values i.e. AChe acivity without incubation with any standard or test drug.
On the technique in general: Ellman's reagent forms a yellow product with free thiols.

Setting [2] is: scopolamine treated mice, 1 hour prior to 2nd trial.

Regarding `O=C(Nc1ccccc1Cl)Oc1ccc2ncccc2c1` [1c], in assay [1] (setting [2]), the “1st TRIAL (acquisition) transfer latency time (TLT)” value came out at 89.6 s and the “2nd TRIAL (retention, after 24 hours) transfer latency time (TLT)” value (shortened to “2nd TRIAL … (TLT)”) turned out to be 230 s. The “% Learning ([2nd Trial − 1st trial/1st trial] × 100)” value in assay [1] (scopolamine treated mice) turned out to be 156.7%. Further, in assay [1], the “% Improvement in Learning (% Learning in treated gp − % Learning in Scopolamine gp)” value (from here on “% Improvement in Learning”) worked out at 123.09%.

As for `CN1CCCc2cc(OC(=O)Nc3ccc(Br)cc3)ccc21` [2r, (4-bromophenyl)carbamic acid 1-methyl-1,2,3,4-tetrahydroquinolin-6-yl ester], in assay [1] (scopolamine treated mice), the change in vivo at 20 µmol/kg is 62% and the “% Learning ([2nd Trial − 1st trial/1st trial] × 100)” value was found to be 95.6%. Further, in assay [1] (setting [2]), the “2nd TRIAL … (TLT)” value was determined as 242 s.

With `O=C(Nc1ccccc1Cl)Oc1ccc2c(c1)CCCN2Cc1ccccc1` [2i, (2-Chloro-phenyl)carbamic acid 1-benzyl-1,2,3,4-tetrahydro-quinolin-6 yl ester], the “Cholinesterase Enzyme Activity in presence of active drug” value at AChE (drug conc. 0.1 μm) is on record as 0.01351 μmol/mg of protein/min; at AChE (drug conc. 0.3 μm), 0.01211 μmol/mg of protein/min; at AChE (drug conc. 1 μm) it was 0.01071 μmol/mg of protein/min; at AChE (drug conc. 3 μm), 0.007456 μmol/mg of protein/min; at AChE (drug conc. 10 μm), 0.001864 μmol/mg of protein/min. The “% Cholinesterase Enzyme Activity in presence of active drug” value at AChE (drug conc. 0.1 μm) is reported as 93.54%; on AChE (drug conc. 0.3 μm), 83.87%; on AChE (drug conc. 1 μm), 74.19%; on AChE (drug conc. 10 μm), 12.90%; at AChE, 51.61%. For the same molecule, the “2nd TRIAL … (TLT)” value in assay [1] (setting [2]) came to 186.4 s. In addition, the “% Learning ([2nd Trial − 1st trial/1st trial] × 100)” value in assay [1] (scopolamine treated mice) is 123.2%. In addition, the “% Improvement in Learning” value in assay [1] came to 89.6%.

Regarding `O=C(Nc1cccc(Br)c1)Oc1ccc2c(c1)CCCN2` [2c, (3-Bromo-phenyl)-carbamic acid 1,2,3,4-tetrahydro-quinolin-6-yl ester], the “2nd TRIAL … (TLT)” value in assay [1] (setting [2]) was determined as 195 s. Also, in assay [1] (scopolamine treated mice), the “% Learning ([2nd Trial − 1st trial/1st trial] × 100)” value is 101%. In assay [1], the “% Improvement in Learning” value is given as 67.4%.

Take `COc1cc2c(cc1OC)C(=O)C(CC1CCN(Cc3ccccc3)CC1)C2` (centres unmarked) [DONEPEZIL, donepezil, reference compound]: in assay [1] (setting [2]), the “2nd TRIAL … (TLT)” value came to 245 s. Besides, in assay [1] (scopolamine treated mice), the “% Learning ([2nd Trial − 1st trial/1st trial] × 100)” value is 168%. Also, the “% Improvement in Learning” value in assay [1] is on record as 134.4%.

`CCCCCCNC(=O)Oc1ccc2c(c1)CCCN2Cc1ccccc1` [2h, Hexyl-carbamic acid 1-benzyl-1,2,3,4-tetrahydro-quinolin-6-yl ester]: in assay [1] (setting [2]), the “2nd TRIAL … (TLT)” value is 205 s. In addition, in assay [1] (scopolamine treated mice), the “% Learning ([2nd Trial − 1st trial/1st trial] × 100)” value was determined as 122.8%. The “% Improvement in Learning” value in assay [1] was 89.2%.

As to `CN1CCCc2cc(OC(=O)Nc3ccc(Cl)c(C(F)(F)F)c3)ccc21` [2q, (4-Chloro-3-trifluoromethyl-phenyl)-carbamic acid 1-methyl-1,2,3,4-tetrahydro-quinolin-6-yl ester], in assay [1] (scopolamine treated mice), the change in vivo at 20 µmol/kg was found to be 76% and the “% Learning ([2nd Trial − 1st trial/1st trial] × 100)” value is reported as 109%. For the same molecule, the “2nd TRIAL … (TLT)” value in assay [1] (setting [2]) worked out at 218 s.

Take `CCCCCCCNC(=O)Oc1ccc2ncccc2c1` [1b, Heptyl-Carbamic Acid quinolin-6-yl ester]: the “2nd TRIAL … (TLT)” value in assay [1] (setting [2]) amounted to 238 s. The “% Learning ([2nd Trial − 1st trial/1st trial] × 100)” value in assay [1] (scopolamine treated mice) worked out at 140.4%. In addition, in assay [1], the “% Improvement in Learning” value amounted to 106.8%.
